Measurements: patent US20240310368A1, “DETECTION KIT FOR CATECHOLAMINES AND METABOLITES THEREOF IN PLASMA/URINE AND DETECTION METHOD THEREOF” (Calibra Scientific, Inc., priority 2023, published 2024)
Where “and” joins values, the source holds several entries; their conditions need not be identical. Identical values can stand only once. Blank lines part the entries; values can stand above or below the compound they belong to.

Assays:
[1] = Stabilizing effect of accelerated stabilizers (37° C., 14 days) on plasma samples then accelerated at 30° C. for 1.5 days; assay type: physicochemical, human; settings: for Relative deviation %: Accelerate vs Control; for concentration in plasma samples, Control / concentration in plasma samples, Accelerate: single replicates; for concentration in plasma samples, Accelerate: stabilizer accelerated 37° C. 14 days, plasma then accelerated at 30° C. for 1.5 days
Protocol: (§1) In the present example, the stabilizing effect of the stabilizers on plasma samples, standard products and quality control products after acceleration was further verified. The stabilizers were accelerated at 37° C. for 14 days (equivalent to 1 year at 2-8° C.), added into the plasma samples in proportions and then accelerated at 30° C. for 1.5 days (equivalent to 12 months at −30° C. to −15° C.). The stabilizers were accelerated at 37° C. for 14 days (equivalent to 1 year at 2-8° C.), added into the standard products and the quality control products in proportions and then accelerated at 30° C. for 2 days (equivalent to 18 months at −30° C. to −15° C.).

[2] = Stabilizing effect of accelerated stabilizers (37° C., 14 days) on standard products and quality control products then accelerated at 30° C. for 2 days; assay type: physicochemical; settings: for Relative deviation %: 2 days at 30° C. vs Control; for concentration in standard products and quality control products, 2 days at 30° C. / concentration in standard products and quality control products, Control: single replicates
Protocol: Standard products of epinephrine, norepinephrine, dopamine, metanephrine, normetanephrine and 3-methoxytyramine were prepared into mixed solutions, and blank plasma containing a stabilizer was used as a matrix to prepare standard products and quality control products.
as §1

[3] = Acceleration test of plasma samples with stabilizers (30° C. for 1.5 days, against control plasma stored at −95° C. to −65° C.), LC-MS/MS Area/IS Area
Protocol: Samples were collected in EDTA-anticoagulant blood collection tubes and then rapidly subjected to […] centrifugation at 2-8° C. to separate plasma. 0.95 mL of the plasma was transferred into centrifuge tubes. After 50 μL of the stabilizer was added for uniform mixing, the plasma samples were stored by refrigeration or freezing.
• (1) 500 μL of plasma/urine samples to be tested were taken, and 50 μL of the internal standard solution and 500 μL of the buffer solution were sequentially added for vertex mixing to obtain diluted samples. • (2) The magnetic medium composite material suspension was subjected to full vortex treatment to reach a suspension state, and then subsequent operation was performed. • (3) Different reagents were added into wells of a preprocessing plate according to the follow operation: adding 200 μL of the magnetic medium composite material suspension in column 1, adding 500 μL of the balance solution in column 2, adding 850 μL of the diluted samples in column 3, adding 500 μL of the balance solution in column 4, adding 200 μL of a rinsing solution in column 5, and adding 100 μL of the elution solution in column 6. • (4) An extraction operation procedure was carried out, as shown in Table 5.
Each group of the plasma samples were stored at 30° C. for 1.5 days, and plasma without addition of any compounds stored at −95° C. to −65° C. was used as a control. […] The stabilizing effect of the single-component stabilizers on the plasma samples was investigated.
The stabilizers were mixed with plasma (the volume ratio of the stabilizers to plasma samples was 1:19), and high concentration plasma samples and low concentration plasma samples were prepared by the method provided in Example 1.
With plasma stored at −95° C. to −65° C. as a control, the above plasma samples were separately stored at 30° C. for 1.5 days to investigate the stability. […]

[4] = samples at a high concentration level
[5] = samples at a low concentration level

- Relative deviation % [1, 4]: −7.1%
- Relative deviation % [1, 5]: −2.5%
- Relative deviation % ([2]; High concentration level): 0.32%
- average concentration, 2 days at 30° C. ([2]; High concentration level): 4998.13 pg/mL
- average concentration, Control ([2]; High concentration level): 4982.23 pg/mL
- Relative deviation % ([2]; Low concentration level): −8.19%
- average concentration, 2 days at 30° C. ([2]; Low concentration level): 55.15 pg/mL
- average concentration, Control ([2]; Low concentration level): 60.07 pg/mL
- Relative deviation % ([2]; Medium concentration level): 1.77%
- average concentration, 2 days at 30° C. ([2]; Medium concentration level): 994.89 pg/mL
- average concentration, Control ([2]; Medium concentration level): 977.62 pg/mL
SMILES: NC[C@H](O)c1ccc(O)c(O)c1 [NE]
- concentration in plasma samples, Control [1, 4]: 1.73055 ng/mL and 1.84024 ng/mL and 1.88485 ng/mL
- concentration in plasma samples, Accelerate [1, 4]: 1.79476 ng/mL and 1.56875 ng/mL and 1.70297 ng/mL
- concentration in plasma samples, Control [1, 5]: 0.27092 ng/mL and 0.2617 ng/mL and 0.26601 ng/mL
- concentration in plasma samples, Accelerate [1, 5]: 0.26432 ng/mL and 0.25764 ng/mL and 0.25636 ng/mL
- concentration in standard products and quality control products, 2 days at 30° C. ([2]; High concentration level): 4.88469 ng/mL and 4.96531 ng/mL and 5.14439 ng/mL
- concentration in standard products and quality control products, Control ([2]; High concentration level): 4.87738 ng/mL and 5.14511 ng/mL and 4.9242 ng/mL
- concentration in standard products and quality control products, 2 days at 30° C. ([2]; Low concentration level): 0.05733 ng/mL and 0.05299 ng/mL and 0.05514 ng/mL
- concentration in standard products and quality control products, Control ([2]; Low concentration level): 0.06429 ng/mL and 0.06019 ng/mL and 0.05575 ng/mL
- concentration in standard products and quality control products, 2 days at 30° C. ([2]; Medium concentration level): 0.98928 ng/mL and 1.01881 ng/mL and 0.97658 ng/mL
- concentration in standard products and quality control products, Control ([2]; Medium concentration level): 0.97173 ng/mL and 0.97142 ng/mL and 0.98969 ng/mL

- Ratio (Area/IS Area) E ([3]; plasma at a high concentration level, plasma containing 50 μg/mL of the component, control plasma 0.624): 0
- Ratio (Area/IS Area) NE ([3]; plasma at a high concentration level, plasma containing 50 μg/mL of the component, control plasma 1.522): 0
- Ratio (Area/IS Area) DA ([3]; plasma at a high concentration level, plasma containing 50 μg/mL of the component, control plasma 2.27): 0
- Ratio (Area/IS Area) E ([3]; plasma at a high concentration level, plasma containing 200 μg/mL of the component, control plasma 0.624): 0
- Ratio (Area/IS Area) NE ([3]; plasma at a high concentration level, plasma containing 200 μg/mL of the component, control plasma 1.522): 0
- Ratio (Area/IS Area) DA ([3]; plasma at a high concentration level, plasma containing 200 μg/mL of the component, control plasma 2.27): 0
- Ratio (Area/IS Area) E ([3]; plasma at a low concentration level, plasma containing 50 μg/mL of the component, control plasma 0.079): 0
- Ratio (Area/IS Area) NE ([3]; plasma at a low concentration level, plasma containing 50 μg/mL of the component, control plasma 0.219): 0
- Ratio (Area/IS Area) DA ([3]; plasma at a low concentration level, plasma containing 50 μg/mL of the component, control plasma 0.233): 0
- Ratio (Area/IS Area) E ([3]; plasma at a low concentration level, plasma containing 200 μg/mL of the component, control plasma 0.079): 0
- Ratio (Area/IS Area) NE ([3]; plasma at a low concentration level, plasma containing 200 μg/mL of the component, control plasma 0.219): 0
- Ratio (Area/IS Area) DA ([3]; plasma at a low concentration level, plasma containing 200 μg/mL of the component, control plasma 0.233): 0
SMILES: O=S([O-])S(=O)(=O)[O-].[Na+].[Na+] [sodium pyrosulfite]

- Ratio (Area/IS Area) E ([3]; plasma at a high concentration level, plasma containing 500 μg/mL of the component, control plasma 0.624): 0
- Ratio (Area/IS Area) NE ([3]; plasma at a high concentration level, plasma containing 500 μg/mL of the component, control plasma 1.522): 0
- Ratio (Area/IS Area) DA ([3]; plasma at a high concentration level, plasma containing 500 μg/mL of the component, control plasma 2.27): 0
- Ratio (Area/IS Area) E ([3]; plasma at a high concentration level, plasma containing 2,000 μg/mL of the component, control plasma 0.624): 0
- Ratio (Area/IS Area) NE ([3]; plasma at a high concentration level, plasma containing 2,000 μg/mL of the component, control plasma 1.522): 0
- Ratio (Area/IS Area) DA ([3]; plasma at a high concentration level, plasma containing 2,000 μg/mL of the component, control plasma 2.27): 0
- Ratio (Area/IS Area) E ([3]; plasma at a low concentration level, plasma containing 500 μg/mL of the component, control plasma 0.079): 0
- Ratio (Area/IS Area) NE ([3]; plasma at a low concentration level, plasma containing 500 μg/mL of the component, control plasma 0.219): 0
- Ratio (Area/IS Area) DA ([3]; plasma at a low concentration level, plasma containing 500 μg/mL of the component, control plasma 0.233): 0
- Ratio (Area/IS Area) E ([3]; plasma at a low concentration level, plasma containing 2,000 μg/mL of the component, control plasma 0.079): 0
- Ratio (Area/IS Area) NE ([3]; plasma at a low concentration level, plasma containing 2,000 μg/mL of the component, control plasma 0.219): 0
- Ratio (Area/IS Area) DA ([3]; plasma at a low concentration level, plasma containing 2,000 μg/mL of the component, control plasma 0.233): 0
SMILES: O=C(O)CC(O)(CC(=O)O)C(=O)O [citric acid]
